From patent US11576900B2, “Compositions and methods of reducing serum cholesterol and PCSK9” (CASE WESTERN RESERVE UNIVERSITY, priority 2017, dated 2023)

Key:
[1] = Total serum cholesterol in CETP/ApoB100 transgenic mice on in-diet imirestat; type: in vivo; details: CETP/ApoB100 transgenic male mice, FIG. 13
Procedure: AKR1A1^−/− mice were generated by Deltagen, Inc. C57BL6/J and ApoE^−/− mice were purchased from The Jackson Laboratory. CETP-ApoB100 transgenic mice were purchased from Taconic Biosciences. All mice were maintained under a 12-hour light/dark cycle. For imirestat treatment studies, mice were provided control chow or chow containing 0.0125% w/w imirestat (125 mg imirestat/1 kg chow) ad libitum. […]
Prior to euthanasia, mice were fasted for the indicated length of time. […] Collected blood was allowed to coagulate for 20 minutes at room temperature in a pediatric serum separator tube. Serum was separated by centrifugation at 2000 g for 20 minutes at 4° C. Serum was stored at −80° C. until analysis. For overnight fasted 12-week-old AKR1A1^−/− mice (FIG. 5), whole blood was provided to University Hospitals' Clinical Laboratory (Cleveland, Ohio) for cholesterol analysis. […]
(§1) Total serum cholesterol was determined by standard enzymatic assays. For lipoprotein cholesterol quantification, lipoprotein fractions were separated by gel filtration column chromatography. Approximately 70 fractions were collected and cholesterol in each fraction was quantified by standard enzymatic assays. Calibration of the column with purified lipoprotein fractions permitted quantification of cholesterol in various lipoprotein classes. Serum PCSK9 was quantified by solid phase sandwich ELISA.

human AKR1A1 = biological target: T1, human AKR1A1 (Homo sapiens, UniProt P14550); assay: AKR1A1 SNO-CoA reductase activity assay (recombinant enzyme); type: biochemical; details: 200 nM recombinant AKR1A1, 100 μM NADPH, 100 μM SNO-CoA; FIG. 5; read-out: IC50 for inhibition of AKR1A1 SNO-CoA Reductase Activity
T1 construct: His; made in house; host or cells: Rosetta2(DE3)pLysS E. coli
T1 sequence (P14550 1-325): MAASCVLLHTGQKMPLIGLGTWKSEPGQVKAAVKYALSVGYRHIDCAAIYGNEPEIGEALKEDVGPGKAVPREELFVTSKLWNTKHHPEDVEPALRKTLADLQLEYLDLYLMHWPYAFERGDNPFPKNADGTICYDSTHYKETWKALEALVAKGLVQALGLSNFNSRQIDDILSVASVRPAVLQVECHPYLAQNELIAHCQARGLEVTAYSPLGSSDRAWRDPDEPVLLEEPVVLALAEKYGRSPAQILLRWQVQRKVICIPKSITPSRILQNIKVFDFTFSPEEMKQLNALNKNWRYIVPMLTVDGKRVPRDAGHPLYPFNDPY
Procedure: The human AKR1A1 coding sequence was cloned into a pET21b bacterial expression vector. pET21b-AKR1A1 was transformed into Rosetta2(DE3)pLysS E. coli and expression was induced by the addition of 100 μM isopropyl-β-D-1-thiogalactopyranoside at A600nm=0.4. Bacteria were grown for 4 hours at 25° C. and recombinant His-tagged SCoR was purified via Ni-affinity purification. Triplicate reactions were performed with 200 nM recombinant AKR1A1, 100 μM NADPH, 100 μM SNO-CoA, and increasing concentrations of imirestat dissolved in dimethyl sulfoxide (DMSO). SNO-CoA was prepared by reacting equal volumes of 0.1M CoA in 1M HCl and 0.1M NaNO2 water containing 100 μM EDTA and 100 μM DTPA. Initial rates were calculated using absorbance decrease at 340 nm. IC50 was calculated in GraphPad Prism 7 using non-linear regression analysis. For AKR1A1 liver activity following in-diet imirestat treatment, frozen liver tissue was dounce homogenized (30 dounces) in 50 mM phosphate buffer, pH 7.0 supplemented with 100 μM ethylenediaminetetraacetic acid (EDTA) and diethylenetriamine pentaacetate (DTPA) and 150 mM sodium chloride. […] Reactions were initiated by the addition of liver lysate and specific activity was calculated from the change in absorbance at 340 nm, protein concentration, and an extinction coefficient of 7.06 mM^−1·cm^−1 (combined for SNO-CoA and NADPH).

[2] = Cholesterol fractionation in ApoE deficient mice on in-diet imirestat; type: in vivo; details: ApoE deficient 24 week old male mice, 4 weeks in-diet Imirestat; FIG. 11
Procedure: (§2) AKR1A1^−/− mice were generated by Deltagen, Inc. C57BL6/J and ApoE^−/− mice were purchased from The Jackson Laboratory. CETP-ApoB100 transgenic mice were purchased from Taconic Biosciences. All mice were maintained under a 12-hour light/dark cycle. For imirestat treatment studies, mice were provided control chow or chow containing 0.0125% w/w imirestat (125 mg imirestat/1 kg chow) ad libitum. C57BL6/J and ApoE^−/− mice were provided control chow or imirestat chow for 4 weeks starting at age 20 weeks; CETP-ApoB100 transgenic mice were provided control chow or imirestat chow for 8 weeks starting at age 10 weeks.
(§3) Prior to euthanasia, mice were fasted for the indicated length of time. […] Collected blood was allowed to coagulate for 20 minutes at room temperature in a pediatric serum separator tube. Serum was separated by centrifugation at 2000 g for 20 minutes at 4° C. […]
as §1

PCSK9 [3] = assay: Serum PCSK9 levels in ApoE deficient mice on in-diet imirestat (ELISA); type: in vivo; details: ApoE deficient 24 week old male mice, 4 weeks in-diet Imirestat; FIG. 12
Procedure: as §2, §3, §1

PCSK9 [4] = assay: Serum PCSK9 levels in C57BL6J mice on in-diet imirestat (ELISA); type: in vivo; details: C57BL6J 24 week old male mice, 4 weeks in-diet Imirestat; FIG. 8
Procedure: as §2, §3, §1

[5] = Total serum cholesterol in ApoE deficient mice on in-diet imirestat; type: in vivo; details: ApoE deficient 24 week old male mice, 4 weeks in-diet Imirestat; FIG. 10
Procedure: as §2, §3, §1

[6] = Total serum cholesterol in C57BL6J mice on in-diet imirestat; type: in vivo; details: C57BL6J 24 week old male mice, 4 weeks in-diet Imirestat (0.0125% w/w chow); FIG. 6
Procedure: as §2, §3, §1

[7] = Cholesterol fractionation in C57BL6J mice on in-diet imirestat; type: in vivo; details: C57BL6J 24 week old male mice, 4 weeks in-diet Imirestat; FIG. 7
Procedure: as §2, §3, §1

AKR1A1 = biological target: T2, AKR1A1 (Mus musculus, UniProt Q9JII6); assay: SNO-CoA reductase activity in liver lysate of C57BL6J mice after in-diet imirestat; type: in vivo; details: C57BL6J 24 week old male mice, 4 weeks in-diet Imirestat; FIG. 9
T2 construct: For AKR1A1 liver activity following in-diet imirestat treatment, frozen liver tissue was dounce homogenized; from tissue; host or cells: liver of C57BL6/J mice (clarified lysate)
T2 sequence (Q9JII6 1-325): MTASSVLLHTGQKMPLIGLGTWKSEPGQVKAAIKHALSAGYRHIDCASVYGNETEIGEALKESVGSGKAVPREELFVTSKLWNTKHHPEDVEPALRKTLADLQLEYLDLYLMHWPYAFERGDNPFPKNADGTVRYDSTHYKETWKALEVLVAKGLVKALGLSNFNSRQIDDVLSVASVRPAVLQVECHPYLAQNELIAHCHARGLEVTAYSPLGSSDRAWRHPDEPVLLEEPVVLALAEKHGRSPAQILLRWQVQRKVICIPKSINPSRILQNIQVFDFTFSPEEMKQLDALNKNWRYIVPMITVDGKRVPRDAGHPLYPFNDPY
Procedure: as §2
Prior to euthanasia, mice were fasted for the indicated length of time. […]
The human AKR1A1 coding sequence was cloned into a pET21b bacterial expression vector. pET21b-AKR1A1 was transformed into Rosetta2(DE3)pLysS E. coli and expression was induced by the addition of 100 μM isopropyl-β-D-1-thiogalactopyranoside at A600nm=0.4. […] Initial rates were calculated using absorbance decrease at 340 nm. IC50 was calculated in GraphPad Prism 7 using non-linear regression analysis. […] Reactions were initiated by the addition of liver lysate and specific activity was calculated from the change in absorbance at 340 nm, protein concentration, and an extinction coefficient of 7.06 mM^−1·cm^−1 (combined for SNO-CoA and NADPH).

IC50 (human AKR1A1): ~0.12 µM
SNO-CoA Reductase activity in liver (AKR1A1 liver activity) vs control (AKR1A1): lower AKR1A1 liver activity
Compound: O=C1NC(=O)C2(N1)c1cc(F)ccc1-c1ccc(F)cc12 [Imirestat, 2,7-Difluoro-2′H,5′H-spiro[fluorene-9,4′-imidazolidine]-2′,5′-dione]
total serum cholesterol vs control [1]: lower total serum cholesterol
cholesterol fractionation vs control [2]: reduced total serum cholesterol
serum PCSK9 levels vs control (PCSK9 [3]): lower total serum PCSK9 levels
serum PCSK9 levels vs control (PCSK9 [4]): lower total serum PCSK9 levels
total serum cholesterol vs control [5]: lower total serum cholesterol
total serum cholesterol vs control [6]: lower total serum cholesterol
cholesterol fractionation vs control [7]: reduced total serum cholesterol
